The target in the experiment is Recombinant human HSD17B13 (Homo sapiens (Human), UniProt Q7Z5P4). The experiment is described as follows: HSD17B13 rapid-fire mass spectrometry assay (RF/MS assay). Format: biochemical. The conditions noted are these: inhibition of HSD17B13; LTB4 10 μM, NAD+ 0.5 mM, RT 3 h; IC50 ranges A-E. The method in brief: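 Sf9-expressed human HSD17B13 (80 nM) with 10 μM LTB4 and 0.5 mM NAD+, incubated with compound (0–100 μM) for 3 h at RT in Tris pH 7.5/BSA/Tween-20. After formic acid quench, LTB4 conversion to 12-oxo-LTB4 measured by RapidFire MS/MS. IC50 from normalised residual activity, duplicates.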

This note sets out measurements from patent US12384753B2, “17-beta-hydroxysteroid dehydrogenase type 13 inhibitors and methods of use thereof” (Enanta Pharmaceuticals, Inc., priority 2021, dated 2025).

SMILES strings stand for the structures.

Chain of Recombinant human HSD17B13 (Q7Z5P4 20-300): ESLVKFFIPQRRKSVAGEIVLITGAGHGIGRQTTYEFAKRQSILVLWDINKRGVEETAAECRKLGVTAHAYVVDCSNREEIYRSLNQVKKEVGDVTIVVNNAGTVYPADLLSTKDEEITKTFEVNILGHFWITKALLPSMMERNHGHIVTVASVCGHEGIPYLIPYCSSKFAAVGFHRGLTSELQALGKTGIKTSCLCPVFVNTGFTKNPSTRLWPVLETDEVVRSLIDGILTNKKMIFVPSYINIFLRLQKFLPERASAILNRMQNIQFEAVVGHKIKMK

`COc1cc(C(=O)O)ccc1NS(=O)(=O)c1csc(N2CCN(C(=O)OCC3CCCCC3)CC2)n1` [Example 307, 4-((2-(4-((cyclohexylmethoxy)carbonyl)piperazin-1-yl)thiazole)-4-sulfonamido)-3-methoxybenzoic acid]: the IC50 (usually the point on the concentration scale where inhibition reaches its midpoint) lay within 0.5 to 1 µM.

As to `COc1cc(C(=O)O)ccc1NS(=O)(=O)c1csc(N2CCN(Cc3ccc(OC(F)(F)F)cc3)CC2)n1` [Example 308], the IC50 was 0.1 to 0.5 µM.

In the case of `COc1cc(C(=O)O)ccc1NS(=O)(=O)c1csc(N2CCN(C(=O)OC(C)C)CC2)n1` [Example 309], the IC50 lay within 1 to 100 µM.

As to `COc1cc(C(=O)O)ccc1NS(=O)(=O)N1CCC(c2ccccc2)CC1` [Example 310], the IC50 was 1 to 100 µM.

As for `COc1cc(C(=O)O)ccc1NS(=O)(=O)N1CCC(c2ccccn2)CC1` [Example 311], the IC50 is 1 to 100 µM.

For the compound `COc1cc(C(=O)O)ccc1NS(=O)(=O)N1CCN(c2ccccc2)CC1` [Example 312], the IC50 was 1 to 100 µM.

As to `COc1cc(C(=O)O)ccc1NS(=O)(=O)N1CCC(c2nnn[nH]2)CC1` [Example 313], the IC50 lay within 1 to 100 µM.

With `COc1cc(C(=O)O)ccc1NS(=O)(=O)N1CCN(c2nccs2)CC1` [Example 314], the IC50 was over 100 µM.

As for `COc1cc(C(=O)O)ccc1NS(=O)(=O)N1CCN(C2CCCC2)CC1` [Example 315], the IC50 was 1 to 100 µM.

Take `COc1cc(C(=O)O)ccc1NS(=O)(=O)c1ccc(-c2ccc(F)cc2)cc1` [Example 316]: the IC50 fell in the range of 0.1 to 0.5 µM.

Take `COc1cc(C(=O)O)ccc1NS(=O)(=O)N1CCN(c2ccc(OC(F)(F)F)cc2)C(=O)C1` [Example 317]: the IC50 was in the range of 1 to 100 µM.

Regarding `COc1cc(C(=O)O)ccc1NS(=O)(=O)C1CCN(c2ncccn2)CC1` [Example 318], the IC50 lay within 1 to 100 µM.

On to `COc1cc(C(=O)O)ccc1NS(=O)(=O)c1cccc(-c2ccc(F)cc2)c1` [Example 319], for which the half-maximal inhibitory concentration (IC50) was 1 to 100 µM.

As to `COc1cc(C(=O)O)ccc1NS(=O)(=O)N1CCCC(Oc2ccccc2)C1` (stereo not drawn) [Example 320, 3-methoxy-4-((3-phenoxypiperidine)-1-sulfonamido)benzoic acid], the IC50 lay in the range of 1 to 100 µM.

Consider `COc1cc(C(=O)O)ccc1NS(=O)(=O)N1CCN(c2cccc(-c3ccccc3)c2)CC1` [Example 321], for which the IC50 lay within 1 to 100 µM.

Consider `COc1cc(C(=O)O)ccc1NS(=O)(=O)c1csc(-c2ccc(C(=O)O)cc2OC)n1` [Example 322], for which the IC50 fell in the range of 1 to 100 µM.

Regarding `COc1cc(C(=O)O)ccc1NS(=O)(=O)c1ccc2sc(-c3ccc(F)cc3)nc2c1` [Example 323], the IC50 lay in the range of 1 to 100 µM.

Regarding `COc1cc(C(=O)O)ccc1NS(=O)(=O)c1ccc(-c2ccc(F)cc2)c(OC)c1` [Example 324], the IC50 was 0.1 to 0.5 µM.

`COc1cc(C(=O)O)ccc1NS(=O)(=O)c1ccc(-c2ccc(C3CCCCC3)cc2)cc1OC(F)(F)F` [Example 325]: the IC50 lay in the range of 1 to 100 µM.

Turning to `COc1cc(C(=O)O)ccc1NS(=O)(=O)c1ccc(-c2ccc(C3CCCCC3)cc2)c(F)c1` [Example 326, 4-((4′-cyclohexyl-2-fluoro-[1,1′-biphenyl])-4-sulfonamido)-3-methoxybenzoic acid], the IC50 lay within 0.1 to 0.5 µM.

With `COc1cc(C(=O)O)ccc1NS(=O)(=O)Nc1ccc(C(=O)O)cc1OC` [Example 327], the IC50 lay in the range of 1 to 100 µM.

`COc1cc(C(=O)O)ccc1NS(=O)(=O)Nc1ccc2nc(-c3ccc(F)cc3)sc2c1` [Example 328, 4-((N-(2-(4-fluorophenyl)benzo[d]thiazol-6-yl)sulfamoyl)amino)-3-methoxybenzoic acid]: the IC50 lay within 1 to 100 µM.

On to `COc1cc(C(=O)O)ccc1NS(=O)(=O)Nc1nc2ccc(-c3ccc(F)cc3)cc2s1` [Example 329], for which the IC50 was 1 to 100 µM.

Regarding `COc1cc(C(=O)O)ccc1NS(=O)(=O)N1C[C@H]2CN(C(=O)OC(C)(C)C)C[C@H]2C1` [Example 331, 4-(((3aR,6aS)-5-(tert-butoxycarbonyl)octahydropyrrolo[3,4-c]pyrrole)-2-sulfonamido)-3-methoxybenzoic acid], the IC50 is 1 to 100 µM.

For the compound `COc1cc(C(=O)O)ccc1NS(=O)(=O)c1ccc(-c2cnc(-c3ccccc3)s2)c(F)c1` [Example 332], the IC50 was in the range of 0.1 to 0.5 µM.

`COc1cc(C(=O)O)ccc1NS(=O)(=O)c1ccc(-c2ccc(F)cc2)cc1F` [Example 333]: the IC50 was 0.1 to 0.5 µM.

`COc1cc(C(=O)O)ccc1NS(=O)(=O)N1Cc2ccc(-c3ccc(F)cc3)cc2C1` [Example 334]: the IC50 fell in the range of 0.1 to 0.5 µM.

Consider `COc1cc(C(=O)O)ccc1NS(=O)(=O)c1ccc(C#CC2CCCC2)c(F)c1` [Example 335, 4-((4-(cyclopentylethynyl)-3-fluorophenyl)sulfonamido)-3-methoxybenzoic acid], for which the IC50 is under 0.1 µM.

For `COc1cc(C(=O)O)ccc1NS(=O)(=O)c1csc(-c2ccc(C3CCC(C)(C)CC3)cc2)n1` [Example 336], the IC50 is under 0.1 µM.

In the case of `COc1cc(C(=O)O)ccc1NS(=O)(=O)c1ccc(-c2cnc(-c3ccccc3)s2)c(F)c1` [Example 337], the IC50 fell in the range of 0.1 to 0.5 µM.

For the compound `COc1cc(C(=O)O)ccc1NS(=O)(=O)N1Cc2ccc(-c3ccc(F)cc3)cc2C1` [Example 338], the IC50 lay in the range of 0.1 to 0.5 µM.

Consider `COc1cc(C(=O)O)ccc1NS(=O)(=O)c1ccc(-c2ccc3c(c2)C(C)(C)CCC3(C)C)cc1F` [Example 339], for which the IC50 lay in the range of 0.5 to 1 µM.

Take `COc1cc(C(=O)O)ccc1NS(=O)(=O)c1ccc(-c2ccc(C3CCCCC3)cc2)cn1` [Example 340]: the IC50 was 1 to 100 µM.

On to `COc1cc(C(=O)O)ccc1NS(=O)(=O)c1ccc(C2=CCN(c3ccccc3)CC2)cc1F` [Example 341], for which the IC50 fell in the range of 0.5 to 1 µM.

In the case of `COc1cc(C(=O)O)ccc1NS(=O)(=O)N1Cc2ccc(C#CC3CCCC3)cc2C1` [Example 342], the IC50 fell in the range of 0.5 to 1 µM.

Consider `COc1cc(C(=O)O)ccc1NS(=O)(=O)c1ccc(C2=CCC(c3ccccc3)CC2)cc1F` (stereo not drawn) [Example 343, 4-((3-fluoro-2′,3′,4′,5′-tetrahydro-[1,1′:4′,1″-terphenyl])-4-sulfonamido)-3-methoxybenzoic acid], for which the IC50 is under 0.1 µM.

Consider `COc1cc(C(=O)O)ccc1NS(=O)(=O)N1Cc2nc(-c3ccc(C4CCCCC4)cc3)sc2C1` [Example 344], for which the IC50 fell in the range of 0.5 to 1 µM.

As to `COc1cc(C(=O)O)ccc1NS(=O)(=O)N1Cc2nc(C#CC3CCCC3)sc2C1` [Example 345], the IC50 was in the range of 0.1 to 0.5 µM.

As to `COc1cc(C(=O)O)ccc1NS(=O)(=O)c1ccc(-c2ccc(C3CCCCC3)cc2)nc1` [Example 346], the IC50 fell in the range of 1 to 100 µM.

On to `COc1cc(C(=O)O)ccc1NS(=O)(=O)c1csc(N2CCN(C(=O)OC(C)C)CC2)n1` [Example 347], for which the IC50 was in the range of 1 to 100 µM.

On to `COc1cc(C(=O)O)ccc1NS(=O)(=O)c1csc(-c2ccc(C3CCC(C(F)(F)F)CC3)cc2)n1` (stereo not drawn) [Example 348], for which the IC50 was under 0.1 µM.

Take `COc1cc(C(=O)O)ccc1NS(=O)(=O)c1csc(-c2ccc(C3=CCCCC3)cc2)n1` [Example 349]: the IC50 is under 0.1 µM.

Consider `CCC[C@H]1CC[C@H](c2ccc(-c3nc(S(=O)(=O)Nc4ccc(C(=O)O)cc4OC)cs3)cc2)CC1` [Example 350], for which the IC50 was under 0.1 µM.

Regarding `COc1cc(C(=O)O)ccc1NS(=O)(=O)c1csc(-c2ccc(C3CCC3)cc2)n1` [Example 351], the IC50 was under 0.1 µM.

For the compound `CC[C@H]1CC[C@H](c2ccc(-c3nc(S(=O)(=O)Nc4ccc(C(=O)O)cc4OC)cs3)cc2)CC1` [Example 352], the IC50 is under 0.1 µM.

On to `COc1cc(C(=O)O)ccc1NS(=O)(=O)c1csc(-c2ccc(C3CCC(C(C)(C)C)CC3)cc2)n1` (stereo not drawn) [Example 353, 4-((2-(4-(4-(tert-butyl)cyclohexyl)phenyl)thiazole)-4-sulfonamido)-3-methoxybenzoic acid], for which the IC50 was under 0.1 µM.

On to `COc1cc(C(=O)O)ccc1NS(=O)(=O)c1csc(C2=CCC(c3ccccc3)CC2)n1` (stereo not drawn) [Example 354], for which the IC50 was under 0.1 µM.

As for `COc1cc(C(=O)O)ccc1NS(=O)(=O)c1ccc(-c2cnn(C3CCCCC3)c2)cc1F` [Example 355], the IC50 is 0.1 to 0.5 µM.

As to `COc1cc(C(=O)O)ccc1NS(=O)(=O)c1ccc(C2=CCC3(CC2)OCCO3)cc1F` [Example 356], the IC50 was 0.1 to 0.5 µM.

In the case of `COc1cc(C(=O)O)ccc1NS(=O)(=O)c1ccc(C2CCC(c3ccccc3)CC2)cc1F` (stereo not drawn) [Example 357], the IC50 was 0.1 to 0.5 µM.

Take `COc1cc(C(=O)O)ccc1NS(=O)(=O)N1Cc2nc(C3=CCC(F)(F)CC3)sc2C1` [Example 358]: the IC50 lay within 0.1 to 0.5 µM.

Turning to `COc1cc(C(=O)O)ccc1NS(=O)(=O)N1Cc2nc(C3=CCC(c4ccccc4)CC3)sc2C1` (stereo not drawn) [Example 359, 3-methoxy-4-((2-(1,2,3,6-tetrahydro-[1,1′-biphenyl]-4-yl)-5,6-dihydro-4H-pyrrolo[3,4-d]thiazole)-5-sulfonamido)benzoic acid], the IC50 was under 0.1 µM.

As to `COc1cc(C(=O)O)ccc1NS(=O)(=O)N1Cc2cccc(-c3ccc(C4CCCCC4)cc3)c2C1` [Example 360], the IC50 lay within 1 to 100 µM.

On to `COc1cc(C(=O)O)ccc1NS(=O)(=O)c1ccc(-c2ccc(C3CCCCC3)cc2)cc1` [Example 361], for which the IC50 fell in the range of 1 to 100 µM.

As for `COc1cc(C(=O)O)ccc1NS(=O)(=O)N1Cc2nc(C3=CCC(C(C)(C)C)CC3)sc2C1` (stereo not drawn) [Example 362], the IC50 lay within 0.1 to 0.5 µM.

As to `COc1cc(C(=O)O)ccc1NS(=O)(=O)N1Cc2ccc(-c3ccc(C4CCCCC4)cc3)cc2C1` [Example 364], the IC50 lay in the range of 0.5 to 1 µM.

On to `COc1cc(C(=O)O)ccc1NS(=O)(=O)c1csc(-c2cccc(C3CCCCC3)c2)n1` [Example 366], for which the IC50 is 0.1 to 0.5 µM.

Regarding `COc1cc(C(=O)O)ccc1NS(=O)(=O)c1csc(-c2ccc(C3CCC(OC(F)(F)F)CC3)cc2)n1` (stereo not drawn) [Example 367], the IC50 was under 0.1 µM.

Regarding `COc1cc(C(=O)O)ccc1NS(=O)(=O)c1csc(-c2ccc(C3CCCC(C)(C)C3)cc2)n1` (stereo not drawn) [Example 368], the IC50 was 0.1 to 0.5 µM.

`COc1cc(C(=O)O)ccc1NS(=O)(=O)c1csc(-c2ccc(C3CCOCC3)cc2)n1` [Example 370]: the IC50 was in the range of 0.5 to 1 µM.
